# Test results reported in PMC7251097, “Aspartate/asparagine-β-hydroxylase: a high-throughput mass spectrometric assay for discovery of small molecule inhibitors” (Scientific Reports, 2020).
# Where a name gives a salt, the structure may show the parent alone. Read-outs that look alike come from different tables or passages of the source.
# Target: T1, His6-AspH315–758 (human aspartate/asparagine-β-hydroxylase, AspH) (Homo sapiens, UniProt Q12797)
# T1 construct: N-Terminally His6-tagged human AspH315–758 (His6-AspH315–758) was produced in E. coli BL21 (DE3) cells; made in house; host or cells: E. coli BL21 (DE3), pET-28a(+) vector
# T1 sequence (Q12797 315-758): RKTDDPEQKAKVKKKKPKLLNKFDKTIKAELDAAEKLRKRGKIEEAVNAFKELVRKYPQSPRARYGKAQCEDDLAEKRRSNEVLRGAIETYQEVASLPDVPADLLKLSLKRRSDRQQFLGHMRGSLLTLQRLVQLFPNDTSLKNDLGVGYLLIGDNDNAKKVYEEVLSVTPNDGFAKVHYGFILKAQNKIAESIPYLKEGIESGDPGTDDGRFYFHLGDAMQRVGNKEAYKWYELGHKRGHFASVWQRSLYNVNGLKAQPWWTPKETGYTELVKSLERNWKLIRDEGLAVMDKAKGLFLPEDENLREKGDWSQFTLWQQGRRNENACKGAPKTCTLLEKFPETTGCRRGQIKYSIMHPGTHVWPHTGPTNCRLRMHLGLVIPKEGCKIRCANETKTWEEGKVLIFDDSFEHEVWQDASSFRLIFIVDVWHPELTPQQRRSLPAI
# Experiment: SPE-MS AspH inhibition assay (LOPAC screen at fixed 20 μM and IC50 dose-response), hydroxylation of cyclic peptide hFX-CP101–119
# Assay type: biochemical
# Details: for inhibition at 20 µM: read-out: % inhibition; for Plate 1 (% inhibition): plate 1, normalised to DMSO and 2,4-PDCA controls
# [1] = LOPAC Plate 4, compound at 20 uM, substrate conversion
# [2] = LOPAC Plate 4, compound at 20 uM
# [3] = LOPAC compound at fixed 20 uM, substrate conversion, plate 1
# [4] = LOPAC compound at 20uM, conversion of substrate peptide
# [5] = LOPAC compound at 20uM, plate 2, normalised to DMSO and 2,4-PDCA controls
SMILES,% conversion [1] [%],inhibition at 20 µM [2] [%],further results
C=CC1=C(C)c2cc3[nH]c(cc4nc(cc5[nH]c(cc1n2)c(C)c5CCC(=O)O)C(CCC(=O)O)=C4C)c(C)c3C=C [Protoporphyrin IX disodium],20.78,46,–
CNCCCC1c2ccccc2C=Cc2ccccc21 [Protriptyline hydrochloride],29.36,20.8,–
O=c1ccc2c(OCCCCc3ccccc3)c3ccoc3cc2o1 [Psora-4],–,–,Plate 1 (% inhibition) (LOPAC compound at fixed 20 uM): 4.97%; Plate 1 (% conversion) [3]: 34.20%
NCCCCN [Putrescine dihydrochloride],39.89,-10,–
NC(=O)c1cnccn1 [Pyrazinecarboxamide],32.31,–,–
CN(C)C(=O)Oc1ccc[n+](C)c1 [Pyridostigmine bromide],–,–,% conversion: 37.84%
COc1ccc(CN(CCN(C)C)c2ccccn2)cc1 [Pyrilamine maleate],–,–,Plate 3 (% conversion) [4]: 36.13%
Oc1ccccc1O [Pyrocatechol],–,–,Plate 1 (% conversion): 10.12%; Plate 1 (% inhibition) (LOPAC compound at fixed 20 uM): 76.68%
C[C@@H]1C(=O)NC2=Nc3cccc(Cl)c3CN21 [Quazinone],40.20,-10.9,–
CCN(CC)CCCC(C)Nc1c2ccc(Cl)cc2nc2ccc(OC)cc12 (centres unmarked) [Quinacrine dihydrochloride],39.58,-9.1,–
CCCN1CCC[C@@H]2Cc3nc(N)ncc3C[C@H]21.Cl.Cl [Quinelorane dihydrochloride],33.91,–,–
C=C[C@H]1C[N@@]2CC[C@H]1C[C@@H]2[C@@H](O)c1ccnc2ccc(OC)cc12 [Quinidine sulfate],33.25,–,–
C=C[C@H]1C[N@@]2CC[C@H]1C[C@H]2[C@H](O)c1ccnc2ccc(OC)cc12 [Quinine sulfate],30.14,–,–
O=C(O)c1cccnc1C(=O)O [Quinolinic acid],7.93,83.6,–
"O=C(O)/C=C\C(=O)O.O=[N+]([O-])c1ccc2nc(N3CCNCC3)ccc2c1 [Quipazine, 6-nitro-, maleate]",31.15,–,–
CCCN1CCC[C@H](c2cccc(O)c2)C1.Cl [R(+)-3PPP hydrochloride],35.27,–,% inhibition [2]: 3.51%
"Br.C=CCN1CCc2c(cc(O)c(O)c2Br)[C@@H](c2ccccc2)C1 [R(+)-6-Bromo-APB hydrobromide, reference compound]",–,–,"Inhibition at 20 µM [%] (AspH activity, fixed compound concentration 20 μM, initial LOPAC screen, 0.5%v/v DMSO): 95.0%; Plate 1 (% inhibition) (LOPAC compound at fixed 20 uM): 95.00%; Plate 1 (% conversion) [3]: 3.97%"
C[C@@]1(C2CCCC2)Cc2cc(OCC(=O)O)c(Cl)c(Cl)c2C1=O [R(+)-IAA-94],–,–,Plate 3 (% conversion) [4]: 30.54%
CN1CCc2cc(Cl)c(O)cc2[C@@H](c2ccccc2)C1.Cl [R(+)-SCH-23390 hydrochloride],–,–,Plate 2 (% inhibition) [5]: -3.60%
CC(C)NC[C@H](O)c1ccc(O)c(O)c1.O=C(O)C(O)C(O)C(=O)O [R(-)-Isoproterenol (+)-bitartrate],–,–,"Plate 2 (% conversion) (LOPAC compound at 20uM, plate 2, conversion of substrate peptide): 5.85%; Plate 2 (% inhibition) [5]: 89.92%"
CCCN1CCc2cccc3c2[C@H]1Cc1ccc(O)c(O)c1-3.Cl [R(-)-Propylnorapomorphine hydrochloride],–,–,Plate 2 (% conversion): 7.83%; Plate 2 (% inhibition) (20 µM): 84.00%
Br.CCCN(CCC)[C@@H]1CCc2cccc(O)c2C1 [R-(+)-8-Hydroxy-DPAT hydrobromide],–,–,Plate 2 (% conversion): 39.31%; Plate 2 (% inhibition) [5]: -10.03%
C#CCN[C@H](C)Cc1ccccc1.Cl [R-(-)-Desmethyldeprenyl hydrochloride],–,–,Plate 2 (% conversion): 39.05%; Plate 2 (% inhibition) (20 µM): -9.24%
COC1(C2=NCCN2)COc2ccccc2O1.Cl (centres unmarked) [RX 821002 hydrochloride],41.17,–,% inhibition [2]: -13.78%
O=C(c1ccc(OCCN2CCCCC2)cc1)c1c(-c2ccc(O)cc2)sc2cc(O)ccc12 [Raloxifene hydrochloride],40.15,-10.8,–
CNC(=C[N+](=O)[O-])NCCSCc1ccc(CN(C)C)o1 [Ranitidine hydrochloride],37.20,-2.13,–
